According to the supplement of paper PMC7661543:
± gives the standard deviation of the averaged measurements.

Columns and labels:
Test in all cases: relative cell number vs DMSO control (72 h) (% of DMSO); higher = less growth inhibition (more cells)
Conditions in all cases: sgRNA knockout: sgNT
[1] = test system: BT-20
Description: (§1)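 QMAP-Seq: a pool of 5 breast cancer cell lines (ZR-75-1, SKBR3, HCC-38, MDA-MB-231, BT-20), each carrying 12 doxycycline-inducible Cas9 sgRNA perturbations (11 knockouts plus non-targeting sgNT), was treated with compounds for 72 h at four 10-fold doses (10 nM-10 uM or 1 nM-1 uM range). Barcodes were amplified and sequenced, and cell number was interpolated from 293T spike-in standard curves. The result is expressed as % of the median of DMSO wells. Two biological replicates.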

[2] = test system: HCC-38
Description: as §1

[3] = test system: MDA-MB-231
Description: as §1

[4] = test system: SKBR3
Description: as §1

[5] = test system: ZR-75-1
Description: as §1

SMILES	relative cell number ([1]; 10 nM)	relative cell number ([1]; 100 nM)	relative cell number ([1]; 1000 nM)	relative cell number ([1]; 10000 nM)	relative cell number ([2]; 10 nM)	relative cell number ([2]; 100 nM)	relative cell number ([2]; 1000 nM)	relative cell number ([2]; 10000 nM)	relative cell number ([3]; 10 nM)	relative cell number ([3]; 100 nM)	relative cell number ([3]; 1000 nM)	relative cell number ([3]; 10000 nM)	relative cell number ([4]; 10 nM)	relative cell number ([4]; 100 nM)	relative cell number ([4]; 1000 nM)	relative cell number ([4]; 10000 nM)	relative cell number ([5]; 10 nM)	relative cell number ([5]; 100 nM)	relative cell number ([5]; 1000 nM)	relative cell number ([5]; 10000 nM)
CNC(=O)c1cc(Oc2ccc(NC(=O)Nc3ccc(Cl)c(C(F)(F)F)c3)cc2)ccn1 [Sorafenib]	116 ± 3.8	100 ± 13	108 ± 36	50.8 ± 8.9	97.1 ± 9.2	133 ± 45	124 ± 8.8	54.6 ± 2.4	86.7 ± 5	93 ± 8.3	90.7 ± 10	41.1 ± 4.4	102 ± 4.4	97.1 ± 4.3	106 ± 2.8	47.8 ± 11	70.2 ± 11	104 ± 2.9	87.4 ± 19	41.7 ± 17
Fc1ccc(CNc2ncnc3ccc(F)cc23)cc1 [Spautin1]	96.8 ± 34	86 ± 36	89.8 ± 13	88.6 ± 19	104 ± 8	99.2 ± 11	111 ± 3.9	106 ± 1.6	124 ± 29	97 ± 34	77.7 ± 26	74.8 ± 8	87.9 ± 40	85.3 ± 0.86	87.4 ± 8.4	92 ± 23	55.6 ± 14	70.6 ± 3.6	94.4 ± 13	49.3 ± 9.3
CC(C)n1cnc2c(NCCc3ccc(O)cc3)nc(-c3csc4ccccc34)nc21 [StemRegenin1]	98.5 ± 13	115 ± 20	94.3 ± 36	55 ± 7.7	90 ± 7.6	116 ± 2.2	104 ± 2.8	86 ± 4	101 ± 24	97.5 ± 25	132 ± 74	75.9 ± 11	103 ± 9	108 ± 14	85.7 ± 28	29.6 ± 8.4	65.1 ± 15	135 ± 5.4	153 ± 85	30.4 ± 12
NC(=O)Nc1sc(-c2ccc(F)cc2)cc1C(N)=O [TPCA1]	119 ± 19	101 ± 34	102.8 ± 0.57	69.2 ± 3.1	90.2 ± 2.3	94.5 ± 5.5	100 ± 6.1	74.1 ± 4.5	111 ± 21	127 ± 23	130 ± 4.7	69.6 ± 7.9	92.2 ± 32	93.1 ± 17	102 ± 8.7	54.5 ± 1.1	104 ± 42	94.7 ± 6	99.5 ± 6.5	43.1 ± 5.7
C=CC[C@@H]1/C=C(\C)C[C@H](C)C[C@H](OC)[C@H]2O[C@@](O)(C(=O)C(=O)N3CCCC[C@H]3C(=O)O[C@H](/C(C)=C/[C@@H]3CC[C@@H](O)[C@H](OC)C3)[C@H](C)[C@@H](O)CC1=O)[C@H](C)C[C@@H]2OC [Tacrolimus]	110 ± 2.2	105 ± 4.6	101 ± 16	120 ± 26	117 ± 8.4	99.57 ± 0.7	115 ± 14	114 ± 5.7	133 ± 27	106 ± 7.6	96.7 ± 7	135 ± 12	108 ± 22	90.6 ± 11	101 ± 17	128.1 ± 0.39	108 ± 7.9	91.5 ± 29	85.6 ± 18	92.8 ± 28
Cn1nnc2c(C(N)=O)ncn2c1=O [Temozolomide]	106 ± 24	111 ± 30	111 ± 14	132 ± 37	115 ± 2.3	89.6 ± 1.4	113 ± 6.5	137 ± 26	125 ± 13	108 ± 27	89 ± 25	101.6 ± 0.8	111 ± 8.3	84.7 ± 20	104 ± 27	96.1 ± 40	89.66 ± 0.62	103 ± 16	81.7 ± 5.9	86.6 ± 3.4
COc1cc([C@@H]2c3cc4c(cc3[C@@H](O[C@@H]3O[C@@H]5CO[C@@H](c6cccs6)O[C@H]5[C@H](O)[C@H]3O)[C@H]3COC(=O)[C@H]23)OCO4)cc(OC)c1O [Teniposide]	98.2 ± 1.9	67.9 ± 24	51.2 ± 5.6	22.6 ± 5.8	87.1 ± 7.7	43 ± 5.7	25.52 ± 0.049	13.4 ± 2	75.8 ± 16	25.4 ± 1.1	11 ± 1.3	11.2 ± 4.8	101 ± 6.8	26.4 ± 3.2	18.4 ± 2.3	15.9 ± 0.19	55.8 ± 2.6	31.4 ± 6.7	29.9 ± 8.2	26.1 ± 0.97
O=C1CCC(N2C(=O)c3ccccc3C2=O)C(=O)N1 (stereo not given) [Thalidomide]	118 ± 11	91 ± 0.81	114 ± 18	113 ± 9	108 ± 8.4	95.3 ± 1.2	117 ± 4.4	115 ± 10	128 ± 37	74.8 ± 24	102 ± 29	124 ± 19	109 ± 39	59.4 ± 1.9	115 ± 17	106 ± 2.4	79.7 ± 19	90.8 ± 6.8	74.2 ± 13	97.2 ± 55
CN(C)c1cc(NC(=O)CNC(C)(C)C)c(O)c2c1C[C@H]1C[C@H]3[C@H](N(C)C)C(O)=C(C(N)=O)C(=O)[C@@]3(O)C(O)=C1C2=O [Tigecycline]	104 ± 12	97.4 ± 4.4	112 ± 24	118 ± 3.6	87.5 ± 6.1	107 ± 30	88.8 ± 2.6	102 ± 6.5	117 ± 16	92.1 ± 21	123 ± 18	83 ± 9.6	92.5 ± 19	69.1 ± 4.5	104 ± 33	65.6 ± 5.3	91.5 ± 11	96.2 ± 29	123 ± 24	90.1 ± 21
O=C1NC(=O)[C@@H](c2cn3c4c(cccc24)CCC3)[C@@H]1c1c[nH]c2ccccc12 [Tivantinib]	109 ± 24	83.6 ± 12	53 ± 6.2	26 ± 1.1	89.1 ± 20	84.9 ± 14	39.6 ± 4.2	25.8 ± 3.1	107 ± 20	97.1 ± 6.3	34.2 ± 18	22.9 ± 13	94.9 ± 2.9	71.06 ± 0.6	19.5 ± 5.7	6.47 ± 2	69.2 ± 29	70.4 ± 1.6	20.4 ± 6.4	16.6 ± 1.9
COc1cc2nccc(Oc3ccc(NC(=O)Nc4cc(C)on4)c(Cl)c3)c2cc1OC [Tivozanib]	87.3 ± 13	75.4 ± 7	101 ± 8.1	79.4 ± 11	94.3 ± 6.2	94.5 ± 10	98.6 ± 11	48.4 ± 2.2	101 ± 2.9	105 ± 6.9	94.7 ± 14	63.3 ± 3.9	103 ± 5.7	97.7 ± 19	96.2 ± 3.3	62.3 ± 7	83.6 ± 67	101 ± 13	115 ± 4.3	33.8 ± 12
CC[C@@]1(O)C(=O)OCc2c1cc1n(c2=O)Cc2cc3c(CN(C)C)c(O)ccc3nc2-1 [Topotecan]	73.1 ± 10	49 ± 8.1	30.9 ± 2.8	12.1 ± 3.9	52.1 ± 9.8	20.9 ± 0.31	12.1 ± 1.6	8.742 ± 0.069	85.1 ± 59	26 ± 0.82	16.9 ± 1.2	8.21 ± 3.3	58.7 ± 5.9	34.7 ± 19	12.1 ± 2.9	6.08 ± 3.9	65.9 ± 3.4	37 ± 5.1	14 ± 5.7	11.8 ± 9.3
